Experiment in all cases: growth of human tumour cells (NCI), 48 h
For test [1], the system named is SK-OV-3 ovarian.
Test [2] relates to M14 melanoma.
Test [3] deals with HCC-2998 colon.
Test [4] has as its system SN12C renal.
Test [5] concerns OVCAR-3 ovarian.
Test [6] has as its system SK-MEL-2 melanoma.
In test [7] the test system is MDA-N.
Test [8] deals with DU-145 prostate.
In test [9] the test system is OVCAR-5 ovarian.

Each structure is given as a SMILES string.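 Grown in 96-well plates, cells were treated for 48 hours with each compound at five concentrations. Insufficient inhibition: endpoint recorded as highest concentration tested. GI50 = concentration required for 50% inhibition of growth. TGI: total growth inhibition.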

For `COC(c1ccsc1)C(C#N)(C#N)N=Cc1ccsc1` (stereo not drawn), the TGI came out at 59.1 µM in [1]; 33.7 µM in [2]; 34 µM in test [3]; 30.8 µM in [4]; 42.2 µM in [5]; 35.6 µM in test [6]. The values for the TGI in test [7], in [8] and in test [9] were 33.4 µM, 28.5 µM and 46.6 µM, respectively.
For the compound `COc1ccc(C2SC(N)=Nc3c2c(C)nn3C(=O)c2ccncc2)cc1` (stereo not drawn), the TGI in test [1], in test [2], in test [4], in test [5], in test [6] and in [7] was greater than 100 µM each time. The TGI in test [8] and in test [9] was greater than 100 µM in each case.
On to `Cc1ccccc1N=C(N)NC#N`, for which the TGI in test [1], in test [2], in [3], in test [4], in test [6] and in [7] was greater than 100 µM in each case. The TGI in [8] and in test [9] was greater than 100 µM in each case.
As to `CCOC(=O)C(=[N+]=[N-])C(=O)C[N+]12CCN(CC1)CC2`, the TGI in test [1], in [2], in test [3], in test [4], in [5] and in [6] was greater than 100 µM in each case. In addition, the TGI in test [7], in test [8] and in [9] was greater than 100 µM each time.
Take `COc1c(-c2cc(C)c(Cl)c(=O)[nH]2)c(O)c(OC)c2occc12`: the TGI in [1], in test [2], in test [3], in test [4], in [5] and in [6] was greater than 100 µM throughout. Besides, the TGI in [7], in [8] and in [9] was greater than 100 µM each time.
Regarding `Cc1cccc2c1C(=O)C1(Cc3ccccc3C1=O)C2` (stereo not drawn), the TGI in [1], in test [2], in [3], in [4], in test [5] and in test [7] was greater than 100 µM each time. Moreover, the TGI in [8] and in test [9] was greater than 100 µM throughout.
With `C/C(O)=C/c1nc2ccccc2nc1/C=C(/C)O`, the TGI in test [1] is greater than 100 µM; in test [2], 44.4 µM; in test [4], 97.7 µM; in test [5], 40.7 µM; in [6], 40.1 µM; in [7], greater than 100 µM. In addition, the TGI in [8] stood at 70.4 µM; in test [9], 79.9 µM.
Consider `CC1CN=C(Nc2cccc(C(F)(F)F)c2)S1` (stereo not drawn), for which the TGI in test [1], in [2], in test [3], in [5], in test [6] and in [7] was greater than 100 µM each time. For the same compound, the TGI in test [8] and in test [9] was greater than 100 µM in each case.
For `CC(C)(C)c1cc(C(O)(C(=O)O)C(=O)O)cc(C(C)(C)C)c1O`, the TGI in test [1], in test [2], in [4], in test [5], in test [6] and in [7] was greater than 100 µM in each case. The TGI in [8] and in [9] was greater than 100 µM throughout.
As for `N#CCCNCCN(CCN(C(=O)Nc1ccccc1)c1ccccc1)C(=O)Nc1ccccc1`, the TGI in test [1] is greater than 100 µM; in test [2] it was 46.1 µM; in test [3] it was 36 µM; in test [4], greater than 100 µM; in test [6] it was greater than 100 µM; in [7] it was greater than 100 µM. Further, the TGI in [8] and in test [9] was greater than 100 µM each time.
`C=CCOc1ccc(C2c3c([nH][nH]c3=O)CC(O)(OCC)C2C(=O)OCC)cc1OC` (stereo not drawn): the TGI in [2], in [3], in test [4], in test [5], in test [6] and in [7] was greater than 100 µM each time. For the same compound, the TGI in test [8] and in [9] was greater than 100 µM throughout.
`CC1(C)O[C@H](C(=O)O)[C@@H](C(=O)O)O1`: the TGI in test [1], in [2], in test [3], in [4], in test [6] and in [7] was greater than 100 µM each time. Besides, the TGI in test [8] and in [9] was greater than 100 µM in each case.
Turning to `COCn1c2ccc(OC(C)=O)cc2c2c(=O)oc(C)nc21`, the TGI in test [1], in [2], in [3], in test [4], in test [6] and in [7] was greater than 100 µM throughout. In addition, the TGI in test [8] and in test [9] was greater than 100 µM in each case.
Regarding `O=S(=O)(c1ccccc1)n1c(C(O)c2ccncc2)cc2ccccc21` (stereo not drawn), the TGI in test [1], in test [2], in test [4], in [5], in [6] and in test [7] was greater than 100 µM each time. Further, the TGI in [8] and in test [9] was greater than 100 µM each time.
For `C[C@]12CC[C@H]3[C@@H](CCC4=CC(=O)C=C[C@@]43O)[C@@H]1CCC2=O`, the TGI in [2], in [3], in test [4], in [5], in test [6] and in [7] was greater than 100 µM in each case. Moreover, the TGI in test [8] and in [9] was greater than 100 µM in each case.
For `Cc1c2c(n3c(nc4ccccc43)c1C#N)SCC2`, the TGI in test [1], in test [2], in test [4], in test [5], in test [6] and in test [7] was greater than 10 µM each time. In addition, the TGI in test [8] and in test [9] was greater than 10 µM throughout.
Consider `CCOC(=O)c1ccc(-c2cc(C)[nH]n2)[nH]1`, for which the TGI in test [1], in [2], in test [4], in test [5], in test [6] and in [7] was greater than 100 µM throughout. Also, the TGI in test [8] and in [9] was greater than 100 µM in each case.
Turning to `Cc1cc(O)c(C(C)C)cc1NC(=O)Nc1cccc2ccccc12`, the TGI was determined as 40 µM in [2]; 41 µM in test [3]; 40.5 µM in test [4]; 40.2 µM in test [5]; 30.4 µM in test [6]; 27.6 µM in [7]. In addition, the TGI amounted to 28.3 µM in test [8] and 56.4 µM in [9].
Turning to `O=S(=O)(c1cc(Cl)ccc1Cl)N1CCN(S(=O)(=O)c2cc(Cl)ccc2Cl)CC1`, the TGI in test [2], in [3], in test [4], in test [5], in [6] and in test [7] was greater than 100 µM each time. For the same compound, the figures for the TGI in test [8] and in test [9] were 29.6 µM and 30 µM, respectively.
On to `COCn1c(C)c(C)c2c(=O)oc(=O)[nH]c21`, for which the TGI in [1], in test [2], in test [3], in test [4], in test [6] and in test [7] was greater than 100 µM each time. Besides, the TGI in test [8] and in [9] was greater than 100 µM in each case.
For the compound `O=C1COC(c2ccccc2O)=NN1CCCN1CCCC1`, the TGI in test [1], in test [2], in test [4], in [5], in [6] and in test [7] was greater than 100 µM in each case. Further, the TGI in [8] and in test [9] was greater than 100 µM throughout.
For the compound `NNC(=O)CC(=O)Nc1ccc(Cl)cc1`, the TGI in test [1], in [3], in [4], in [5], in [6] and in [7] was greater than 100 µM each time. The TGI in test [8] and in test [9] was greater than 100 µM each time.
For `COc1cc2c(cc1OC)C1CN3C(=O)CCC3C(O)C1c1cc(OC)c(OC)cc1-2` (stereo not drawn), the TGI in test [1], in test [2], in test [3], in test [4], in test [6] and in test [7] was greater than 100 µM in each case. Moreover, the TGI in [8] and in test [9] was greater than 100 µM in each case.
As to `Cc1oc2nc1C(=O)NCc1nc(cs1)C(=O)N[C@H](C(C)C)c1nc(cs1)C(=O)N[C@H]2C`, the TGI in test [1], in test [2], in [3], in test [4], in [5] and in test [7] was greater than 100 µM in each case. In addition, the TGI in [8] and in test [9] was greater than 100 µM each time.
As to `Oc1nc(N/N=C/c2c[nH]c3ccccc23)[nH]c1/C=C1\C=Nc2ccccc21`, the TGI in [1] was greater than 100 µM; in test [2] it was 75.9 µM; in [4] it was greater than 100 µM; in test [5], 29.6 µM; in [6], 36.5 µM; in test [7], greater than 100 µM. Further, the TGI in test [8] and in [9] was greater than 100 µM each time.
Turning to `Cc1cc2c(cc1-c1cc3c(cc1C)C(C(C)C)=C(O)C(=O)/C3=C\Nc1nc(-c3ccccc3)cs1)/C(=C/Nc1nc(-c3ccccc3)cs1)C(=O)C(O)=C2C(C)C`, the TGI in test [1] was 95.2 µM; in [2] it was 30.1 µM; in test [4] it was 48.4 µM; in test [5] it was 36 µM; in test [6], 50.9 µM; in test [7], greater than 100 µM. In test [8], the TGI was 55 µM.
For the compound `Cc1c(CNc2ccc(Cl)c(C(=O)NC(CC(=O)O)C(=O)O)c2)ccc2nc(N)nc(N)c12` (stereo not drawn), the GI50 in test [1] was 800 µM; in test [5] it was 16.8 µM; in [6] it was greater than 1000 µM; in test [8] it was 0.594 µM. Also, the TGI in [1], in test [2], in [4], in [5], in test [6] and in test [7] was greater than 1000 µM throughout. In [8], the TGI is greater than 1000 µM.
Regarding `O=C(O)CC(NC(=O)Nc1ccc([N+](=O)[O-])cc1)C(=O)Nc1ccc([N+](=O)[O-])cc1` (stereo not drawn), the TGI in test [1], in test [2], in [3], in test [5], in [6] and in [7] was greater than 100 µM in each case. The TGI in test [8] and in test [9] was greater than 100 µM each time.
As for `CCNc1nc(N)c(C(=O)c2ccc(Cl)cc2)s1`, the TGI in test [1] is greater than 100 µM; in test [2] it was greater than 100 µM; in test [4] it was greater than 100 µM; in [5], 65.4 µM; in [6], greater than 100 µM; in test [7], greater than 100 µM. In addition, the TGI in test [8] and in [9] was greater than 100 µM each time.
`CN(C(=O)C12C3C4(C(=O)O)C1(C(=O)N(C)C(C)(C)C)C1C2(C(=O)O)C3(C(=O)N(C)C(C)(C)C)C14C(=O)N(C)C(C)(C)C)C(C)(C)C` (stereo not drawn): the TGI in test [2], in test [3], in test [4], in test [5], in [6] and in test [7] was greater than 100 µM each time. Also, the TGI in test [8] and in [9] was greater than 100 µM throughout.
Regarding `CN(C)CCCn1c(Cc2ccccc2)nc2cc(C(F)(F)F)ccc21`, the TGI in test [1] is 63.2 µM; in [2] it was 30.4 µM; in [4], greater than 100 µM; in [5], greater than 100 µM; in test [6] it was 33 µM; in test [7], 33.1 µM. Also, the TGI in test [8] and in test [9] was greater than 100 µM throughout.
